# Test results from PMC4865847, “Putative histidine kinase inhibitors with antibacterial effect against multi-drug resistant clinical isolates identified by in vitro and in silico screens” (Scientific Reports, 2016).
# Several values for one entry are separate records, joined by “and”; a condition that tells them apart may be missing. Identical values can stand only once. Like-named read-outs stand apart in the source and are kept apart here.
# Experiments:
# E. coli PhoR (PhoR^E) = target: T1, E. coli PhoR (PhoR^E) (Escherichia coli, UniProt P08400); experiment: Aggregation analysis by native-PAGE, PhoR^E; conditions: 2 mM (S5 and S6 5 mM), 10% DMSO
# T1 construct: The catalytic portion (DHp and CA domain) of E. coli PhoR (PhoR^E); made in house; host or cells: E. coli RIL
# T1 sequence (P08400 210-425): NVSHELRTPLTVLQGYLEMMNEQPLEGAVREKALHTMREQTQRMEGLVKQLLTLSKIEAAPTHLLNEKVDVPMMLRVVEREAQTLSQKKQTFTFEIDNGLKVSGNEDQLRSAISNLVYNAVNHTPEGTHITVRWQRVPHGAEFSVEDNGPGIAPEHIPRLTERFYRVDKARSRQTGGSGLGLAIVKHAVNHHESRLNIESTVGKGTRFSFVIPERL
# Protocol: (§1) E. coli PhoR and EnvZ, and S. aureus PhoR ([…], final concentration) were prepared in kinase buffer. […] DMSO in the assays was maintained to a final concentration 10% (v/v). After 30 min of incubation at room temperature Native polyacrylamide gel electrophoresis (Native-PAGE) loading buffer was added and samples loaded. Coomassie blue staining was used for protein visualization.
# S. aureus PhoR (PhoR^S) = S. aureus PhoR (PhoR^S) (Staphylococcus aureus, UniProt Q2FXN7); experiment: In vitro autophosphorylation kinase assay with γ-32P-ATP, PhoR^S; assay type: biochemical; conditions: for IC50: IC50 PhoR^S, autophosphorylation, one time point (30 sec), 10% DMSO; for inhibition at 2000 µM: read-out: inhibition of PhoR^S autophosphorylation
# Sequence of S. aureus PhoR (PhoR^S) (Q2FXN7 entry or part of it): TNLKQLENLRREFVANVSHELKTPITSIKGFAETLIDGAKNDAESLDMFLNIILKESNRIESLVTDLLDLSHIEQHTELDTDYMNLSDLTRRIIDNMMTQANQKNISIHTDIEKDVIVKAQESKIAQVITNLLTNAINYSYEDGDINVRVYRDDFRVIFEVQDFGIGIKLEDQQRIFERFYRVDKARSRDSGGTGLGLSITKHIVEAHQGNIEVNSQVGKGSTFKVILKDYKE
# Method in brief: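 ≈4 μM HK incubated with up to 20 mM fragment in 50 mM Tris HCl pH 8.5, 50 mM KCl, 5 mM MgCl2, 0.5 mM EDTA, 0.1 mM DTT; started with γ-32P-ATP (0.03–0.06 μM ATP final). Quenched with SDS sample buffer/EDTA, run on SDS-PAGE unheated, phosphoprotein quantified by phosphor-imaging.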
# Gram negative strains = experiment: Antibacterial susceptibility testing, Gram negative strains (summary); assay type: cell-based; conditions: read-out: MIC Gram negative
# Protocol: (§2) Bacterial strains used in this study for antibacterial susceptibility testing (Table S5) were propagated using standard microbiological procedures. Minimal inhibitory concentrations (MICs) were determined following a standard double-dilution method. MICs were recorded as the lowest concentration of the compound where no visible growth was observed. After plating the dilutions around the MIC or growing them in fresh MH media, minimal bactericidal concentration (MBC) was recorded as the lowest concentration of the compound at which no colonies were formed or no growth was observed, respectively. For S. pneumoniae MICs were determined by adapting the standard double-dilution method to anaerobic conditions and of this microorganism (use of Todd Hewitt Yeast extract with 200 U/mL of catalase and continuous monitoring of growth).
# Acinetobacter baumannii = experiment: Antibacterial susceptibility testing (MIC), A. baumannii; assay type: cell-based
# Method in brief: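 MICs were determined by standard double (two-fold) dilution and read as the lowest compound concentration with no visible growth. MBC was the lowest concentration giving no colonies on plating, or no growth on regrowth in fresh MH medium. For S. pneumoniae the method was adapted to anaerobic conditions in Todd Hewitt yeast extract with 200 U/mL catalase, with growth monitored continuously.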
# Gram positive strains = experiment: Antibacterial susceptibility testing, Gram positive strains (summary); assay type: cell-based
# Protocol: as §2
# NCI-60 tumor cell lines = test system: NCI-60 tumor cell lines; set-up: method as in PMID 11121759; conditions: 2.72 μg/ml (10 μM), one dose; maximum over cell lines; cited from earlier work
# [1] = target: T2, HK WalK (DHp and CA domain) (Streptococcus pneumoniae, UniProt Q8DPL8); experiment: Differential scanning fluorimetry (DSF), WalK; assay type: binding
# T2 construct: WalK (amino acids from 208 to 449); N-terminal His6-3C site of vector pOPINF (own knowledge of the vector); made in house; host or cells: E. coli RIL
# T2 sequence (Q8DPL8 208-449): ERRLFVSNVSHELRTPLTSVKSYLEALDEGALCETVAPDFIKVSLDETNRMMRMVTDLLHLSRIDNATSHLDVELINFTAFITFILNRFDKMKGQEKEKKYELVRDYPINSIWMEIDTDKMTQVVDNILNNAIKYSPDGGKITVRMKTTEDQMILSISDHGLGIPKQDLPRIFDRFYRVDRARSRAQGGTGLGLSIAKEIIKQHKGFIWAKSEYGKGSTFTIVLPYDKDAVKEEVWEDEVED
# Protocol: (§3) To monitor protein unfolding, the fluorescent dye Sypro orange was used[26]. Differential scanning fluorimetry (DSF) experiments were conducted in the iCycleriQ Real Time Detection System (Bio-Rad, Hercules, CA). Solutions of 20 μl of 0.1 mg/ml protein (final concentration), 200 μM fragment cocktails or individual fragments (final concentration), 10X sypro orange (final concentration) and buffer (100 mM TrisCl pH 8, 150 mM NaCl) were added to the wells of the 96-well iCycler iQ PCR plate. The plate was heated from 20 to 85 or 99 °C at a heating rate of 1 °C/min. The fluorescent intensity was measured with Ex/Em: 490/530 nm. Prism GraphPad v.5 was used for curve fitting and statistical analysis.
# E. coli EnvZ = target: T3, E. coli EnvZ (Escherichia coli, UniProt P0AEJ4); experiment: Aggregation analysis by native-PAGE, EnvZ; conditions: 2 mM, 10% DMSO
# T3 construct: The catalytic portion (DHp and CA domain) of E. coli PhoR (PhoR^E), E. coli EnvZ; made in house; host or cells: E. coli RIL
# T3 sequence (P0AEJ4 240-440): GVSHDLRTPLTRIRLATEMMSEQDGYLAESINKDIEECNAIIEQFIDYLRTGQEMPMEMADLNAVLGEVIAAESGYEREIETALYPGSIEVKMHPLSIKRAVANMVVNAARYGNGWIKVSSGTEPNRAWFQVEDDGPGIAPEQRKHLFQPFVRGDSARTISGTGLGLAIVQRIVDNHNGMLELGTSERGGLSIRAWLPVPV
# Protocol: as §1
# S. pneumoniae WalK = target: T4, S. pneumoniae WalK (Streptococcus pneumoniae, UniProt Q8DPL8); experiment: In vitro autophosphorylation kinase assay with γ-32P-ATP, WalK; assay type: biochemical
# T4 construct: WalK (amino acids from 208 to 449); N-terminal His6-3C site of vector pOPINF (own knowledge of the vector); made in house; host or cells: E. coli RIL
# T4 sequence (Q8DPL8 208-449): as the sequence (Q8DPL8 208-449) above
# Method in brief: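 Histidine kinase (0.12 mg/ml, ≈4 μM) incubated with up to 20 mM fragment in 50 mM Tris HCl pH 8.5, 50 mM KCl, 5 mM MgCl2, 0.5 mM EDTA, 0.1 mM DTT; started with 0.1 μCi/μl γ-32P-ATP (0.03–0.06 μM ATP final). Phosphoprotein quantified by SDS-PAGE and phosphor-imaging, curve-fitted; DMSO controls.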
# HK NblS (CA domain) = experiment: Differential scanning fluorimetry (DSF), NblS; assay type: binding, Synechococcus sp. PCC 7942
# Protocol: as §3
# [2] = MDR clinical isolate NM8, read-out: MIC A. baumannii NM8
# [3] = MDR clinical isolate NM35, read-out: MIC A. baumannii NM35
# [4] = MDR clinical isolate NM75, read-out: MIC A. baumannii NM75
# [5] = MDR clinical isolate NM109, read-out: MIC A. baumannii NM109
# [6] = MDR clinical isolate NM124, read-out: MIC A. baumannii NM124
smiles,measurement,setting,value
"CC[C@H](c1ccc(O)cc1)[C@@H](CC)c1ccc(F)cc1 [S1.13, 4-[(3S,4R)-4-(4-fluorophenyl)hexan-3-yl]phenol]","HK aggregation, PhoR^E",E. coli PhoR (PhoR^E),do not cause HK aggregation
same,IC50,S. aureus PhoR (PhoR^S),212 µM
same,inhibition at 2000 µM,S. aureus PhoR (PhoR^S),> 75%
same,MIC,Gram negative strains,> 500 µg/mL
same,MIC,Acinetobacter baumannii; [2],> 500 µg/mL
same,MIC,Acinetobacter baumannii; [3],> 500 µg/mL
same,MIC,Acinetobacter baumannii; [4],> 500 µg/mL
same,MIC,Acinetobacter baumannii; [5],> 500 µg/mL
same,MIC,Acinetobacter baumannii; [6],> 500 µg/mL
same,MBC,"Gram positive strains; Staphylococcus aureus, MRSA, summary, read-out: MBCs against Gram-positives, including multi-drug resistant MRSA",≤ 16 µg/mL
same,MIC,Gram positive strains; summary over Gram positive strains,≥ 8 µg/mL
same,growth inhibition of NCI-60 cell lines,NCI-60 tumor cell lines,≤ 19%
"Nc1nc(-c2ccc(Br)cc2)cs1 [F1, 4-(4-bromophenyl)-1,3-thiazol-2-amine]",increase of WalK Tm,[1],4.5 °C
same,"HK aggregation, PhoR^E",E. coli PhoR (PhoR^E),do not cause HK aggregation
same,"HK aggregation, EnvZ",E. coli EnvZ,do not cause HK aggregation
same,IC50,"S. pneumoniae WalK; autophosphorylation, one time point (30 sec), 10% DMSO, read-out: IC50 WalK",> 2000 µM
same,inhibitory capacity for WalK autophosphorylation activity,"S. pneumoniae WalK; single concentration 5 mM, 30 sec",weak inhibitory capacity
same,MIC,Acinetobacter baumannii; [2],> 500 µg/mL
same,increase of NblS Tm,HK NblS (CA domain),2.1 °C
"CC(C)(C)c1ccc(O)c(CNc2ccccc2)c1 [S1.14, 4-tert-butyl-2-[(phenylamino)methyl]phenol]","HK aggregation, PhoR^E",E. coli PhoR (PhoR^E),do not cause HK aggregation
same,inhibition at 2000 µM,S. aureus PhoR (PhoR^S),> 75%
same,MIC,Acinetobacter baumannii; [2],500 µg/mL
same,MIC,Acinetobacter baumannii; [3],500 µg/mL
same,MIC,Acinetobacter baumannii; [4],500 µg/mL
same,MIC,Acinetobacter baumannii; [5],250 µg/mL
same,MIC,Acinetobacter baumannii; [6],250 µg/mL
same,MIC,"Acinetobacter baumannii; summary over strains, read-out: MICs for A. baumannii strains",250 to 500 µg/mL
"CC(=O)Nc1cccc(-c2ccccc2Cl)c1 [S1.7, N-[3-(2-chlorophenyl)phenyl]acetamide]","HK aggregation, PhoR^E",E. coli PhoR (PhoR^E),do not cause HK aggregation
same,IC50,S. aureus PhoR (PhoR^S),1000 µM and ~1000 µM
same,inhibition at 2000 µM,S. aureus PhoR (PhoR^S),> 75%
same,MIC,Acinetobacter baumannii; [2],> 500 µg/mL
same,MIC,Acinetobacter baumannii; [3],> 500 µg/mL
same,MIC,Acinetobacter baumannii; [4],> 500 µg/mL
same,MIC,Acinetobacter baumannii; [5],> 500 µg/mL
same,MIC,Acinetobacter baumannii; [6],> 500 µg/mL
